One data set concerns TGF-β2 signaling pathway. As to the kind of experiment: Western blotting for α-SMA and fibronectin in TGF-β2-treated fibroblasts. In kind it is cell-based, rabbit. To be noted: incubated 48 to 72 hours; for band intensity for fibronectin and α-SMA compared with samples not treated with the inhibitors: more pronounced with higher concentration; for fibronectin and α-SMA protein expression induced by TGF-B2: rabbit subconjunctival fibroblasts, 2 ng/ml TGF-β2. The procedure:
(§1) Sample fibroblasts were obtained from New Zealand white rabbit eyes. The fibroblasts were derived from the subconjunctival tissues isolated from the eyes of the subjects. The third to fifth passages of cells were maintained in 25 cm^2 flasks using 3 ml of medium composed of Eagle's minimal essential medium, 10% fetal bovine serum, 5% calf serum, essential and nonessential aminoacids, and antibiotics. When the cells reached confluence, they were trypsinized and passaged.
(§2) The fibroblast cultures in 6-well plates were pre-treated with 2 ml of medium including ALK-5 inhibitors at various concentrations, 0.03, 0.1, […], 1.0, 3.0, and 10.0 μM, for one hour, and were additionally treated with
(§3) 2 ng/ml of TGF-β2 (R&D Systems, Minneapolis, Minn.) for up to 72 hours.
To test for fibronectin and α-SMA protein expression after the treatment with the respective inhibitors, rabbit subconjunctival fibroblasts, as prepared in samples 1-16, were incubated for 48 to 72 hours. […] Band intensity for both proteins was reduced in A-83-01 and SB-431542 treated samples compared with the bands of those samples not treated with the inhibitors. The reduction in protein levels is more pronounced with a higher concentration of the inhibitors. The blots were also probed for β-actin to control for equal protein loading.
Proteins in the cell lysates (20 μg/lane) were resolved on a 10% sodium dodecyl sulfate (SDS)-polyacrylamide gel. The proteins were transferred to nitrocellulose. After blocking with 1% bovine serum albumin, the membranes were probed with monoclonal mouse anti-α-SMA (1:9,000) followed by HRP-conjugated goat anti-mouse IgG (1:150,000; Jackson), or monoclonal mouse anti-fibronectin (1:1,000) followed by HRP-conjugated goat anti-mouse IgG (1:10,000). Signals were detected by enhanced chemiluminescense.
Background: A western blot detects proteins with antibodies after separation by electrophoresis.

The test system of data set [1] is cultured rabbit subconjunctival fibroblasts. As to the kind of experiment: TGF-β2 activity related to wound healing in cultured fibroblasts (overall conclusion). In kind it is cell-based. To be noted: for cell toxicity: cell cultures prepared with either inhibitor; for TGF-β2 activity related to wound healing: cultured rabbit subconjunctival fibroblasts. The procedure:
as §1, §2, §3
Thus, these inhibitors may be used as ocular anti-scarring agents, especially for glaucoma filtration surgery.

Another data set concerns rabbit fibroblasts. Briefly: Fibroblast morphology by phase contrast microscopy. To be noted: 5 ng/ml TGF-β2; for TGF-β2-induced morphologic change (myofibroblast-like appearance): sample 6 (A-83-01 3.0 μM), sample 14 (SB-431542 10.0 μM).
Data set [2] has as its system TGF-β2-induced proteins. As to the kind of experiment: Immunocytofluorescence microscopy for CTGF, fibronectin and α-SMA. To be noted: for staining intensity of TGF-β2-induced proteins (CTGF, α-SMA, fibronectin): samples 5-6 (A-83-01 1.0, 3.0 μM) and 13-14 (SB-431542 3.0, 10.0 μM), 2 ng/ml TGF-β2, 72 hours.
Description: (§4) In another example, subconjunctival fibroblasts were cultured on 8-well chamber slides. The samples were prepared as in samples 5-6 and 13-16 and incubated for 72 hours. After inhibitor treatment, the fibroblast cultures were fixed with 4% paraformaldehyde or with ice-cold methanol for Alexa Fluor or FITC staining, respectively. After permeabilization, the cells cultures were incubated with polyclonal goat anti-CTGF (1:50, Santa Cruz) followed by Alexa Fluor donkey anti-goat IgG (10 μg/mL, Invitrogen), monoclonal mouse anti-fibronectin (10 μg/mL, Invitrogen) or monoclonal mouse anti-α-SMA (1:400, Sigma) followed by FITC goat anti-mouse IgG (1:100, Jackson ImmunoResearch). The cell cultures were mounted with aqueous mounting media with DAPI and viewed by fluoresence microscopy.
Nuclei were stained with DAPI (blue).
Data set [3] concerns TGF-β2-induced proteins.
Description: as §4
Nuclei were stained with DAPI (blue).

Read-outs that look alike come from different tables or passages of the source.

Results on two molecules are retold here after US20100087486A1, “METHODS FOR USING TGF-B RECEPTOR INHIBITORS OR ACTIVIN-LIKE KINASE (ALK) 5 INHIBITORS A-83-01 AND SB-431542 TO TREAT EYE DISEASE AND WOUND HEALING CONDITIONS” (priority 2008, published 2010).

Description for rabbit fibroblasts: In another example, rabbit fibroblasts were prepared as in samples 6, 14, 15, and 16 except that 5 ng/ml of TGF-β2 was added to the samples instead of 2 ng/ml.

For `Cc1cccc(-c2nn(C(=S)Nc3ccccc3)cc2-c2ccnc3ccccc23)n1` [A-83-01], in the data set with TGF-β2 signaling pathway, the “band intensity for fibronectin and α-SMA compared with samples not treated with the inhibitors” value is “reduced”; the “fibronectin and α-SMA protein expression induced by TGF-B2” value is “effectively inhibited”. Moreover, in data set [1], the cell toxicity entry is “No obvious cell toxicity” and the “TGF-β2 activity related to wound healing” value is recorded as “effectively block”. In the data set on rabbit fibroblasts (sample 6 (3.0 μM), sample 14 (10.0 μM)), the cell death result is reported as “No obvious cell death”. Besides, the “TGF-β2-induced morphologic change (myofibroblast-like appearance)” value in the data set with rabbit fibroblasts is “seemed to be averted”. The “staining intensity of TGF-β2-induced proteins (CTGF, α-SMA, fibronectin)” value in the data set with TGF-β2-induced proteins [2] is on record as “greatly reduced”. In addition, the cell death result in the data set on TGF-β2-induced proteins [2] (samples 5-6 and 13-14, 72 hours) is listed as “No obvious cell death”.

With `NC(=O)c1ccc(-c2nc(-c3ccc4c(c3)OCO4)c(-c3ccccn3)[nH]2)cc1` [SB-431542], in the data set with TGF-β2 signaling pathway, the “band intensity for fibronectin and α-SMA compared with samples not treated with the inhibitors” value was “reduced”; the “fibronectin and α-SMA protein expression induced by TGF-B2” value is given as “effectively inhibited”. Moreover, in data set [1], the cell toxicity entry is listed as “No obvious cell toxicity” and the “TGF-β2 activity related to wound healing” value is reported as “effectively block”. For the same molecule, the cell death entry with TGF-β2-induced proteins [3] is “No obvious cell death”. The “TGF-β2-induced morphologic change (myofibroblast-like appearance)” value in the data set with rabbit fibroblasts was “seemed to be averted”. Further, the “staining intensity of TGF-β2-induced proteins (CTGF, α-SMA, fibronectin)” value in the data set on TGF-β2-induced proteins [2] was “greatly reduced”.
